Experiments:
[1] = target: T1, recombinant human ALK5 (TGF-βR1) protein (Homo sapiens, UniProt P36897); assay: Biochemical ALK5 (TGF-βR1) assay to measure pKi (LANCE Ultra ULight kinase assay); conditions: apparent pKi from pIC50 by Cheng-Prusoff, read-out: ALK5 pKi (converted)
T1 construct: purchased Life Technologies PR9075A
T1 sequence (P36897 34-503): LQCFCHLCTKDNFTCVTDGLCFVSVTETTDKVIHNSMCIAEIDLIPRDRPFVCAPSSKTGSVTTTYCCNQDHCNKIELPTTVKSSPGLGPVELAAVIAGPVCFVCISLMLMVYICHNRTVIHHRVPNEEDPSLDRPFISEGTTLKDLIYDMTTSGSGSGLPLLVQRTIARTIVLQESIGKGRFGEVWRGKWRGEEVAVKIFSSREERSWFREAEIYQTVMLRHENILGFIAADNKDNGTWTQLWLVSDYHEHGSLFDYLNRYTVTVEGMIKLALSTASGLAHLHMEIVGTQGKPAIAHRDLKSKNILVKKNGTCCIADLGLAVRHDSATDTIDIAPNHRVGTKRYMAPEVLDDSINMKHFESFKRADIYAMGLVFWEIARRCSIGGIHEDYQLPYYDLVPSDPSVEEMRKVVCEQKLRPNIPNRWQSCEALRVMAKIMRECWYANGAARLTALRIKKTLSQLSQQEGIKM
Method in brief: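 Compounds (10 μM to 25 pM) were preincubated 60 min at room temperature with enzyme, then reactions were started with ATP (125 μM stock, 5× final) and run 60 min at 37 °C. EDTA-containing Eu-anti-phospho-Topo IIα (Thr1342) antibody stopped the reaction; TR-FRET read at 665 nm. pIC50 from 4-parameter fit, converted to pKi via Cheng-Prusoff.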

[2] = system: TGF-β-stimulated SMAD3 phosphorylation in BEAS-2B cells; assay: Cellular ALK5 potency assay, inhibition of TGF-β stimulated pSMAD3 formation in BEAS-2B cells; format: cell-based; conditions: Homo sapiens; inhibition of TGF-β stimulated pSMAD3 formation, BEAS-2B cells; read-out: BEAS2B pIC50 (converted)
Method in brief: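 pSMAD3 was quantified by AlphaLISA in BEAS-2B lysates after 10 ng/mL TGF-β (final) for 30 min. Before stimulation, cells received compound for 1 h at 37° C in supplemented HBSS. Values are pIC50, relative to TGF-β-stimulated cells without compound.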

SMILES | Ki [1] [nM] | IC50 [2] [nM]
Cc1cccc(-c2n[nH]cc2-c2ccc3ncc(-c4cc[nH]n4)cc3n2)n1 [Compound 612, 2-[3-(6-methyl-2-pyridyl)-1H-pyrazol-4-yl]-7-(1H-pyrazol-3-yl)-1,5-naphthyridine] | 0.0398 to 0.316 | 25.1 to 158
Cc1nc(-c2n[nH]cc2-c2ccc3ncc(-c4cnn([C@H]5CC[C@@H](N)C5)c4)cc3n2)ccc1F (racemic) [Compound 96, rac-(1R,3S)-3-[4-[6-[3-(5-fluoro-6-methyl-2-pyridyl)-1H-pyrazol-4-yl]-1,5-naphthyridin-3-yl]pyrazol-1-yl]cyclopentanamine] | < 0.0316 | 25.1 to 158
Cc1cccc(-c2[nH]cnc2-c2ccc3nccc(C(=O)O[C@H]4CC[C@](C)(N)CC4)c3c2)n1 [Compound 1209, (4-amino-4-methyl-cyclohexyl) 6-[5-(6-methyl-2-pyridyl)-1H-imidazol-4-yl]quinoline-4-carboxylate] | 0.398 to 3.16 | 25.1 to 158
Cc1nc(-c2nc3ccccn3c2-c2ccc3ncc(-c4cn[nH]c4)cc3n2)ccc1F [Compound 169, 2-[2-(5-fluoro-6-methyl-2-pyridyl)imidazo[1,2-a]pyridin-3-yl]-7-(1H-pyrazol-4-yl)-1,5-naphthyridine] | 0.0398 to 0.316 | < 20
Cc1cccc(-c2n[nH]cc2-c2ccc3ncc(N)cc3n2)n1 [Compound 300, 6-[3-(6-methyl-2-pyridyl)-1H-pyrazol-4-yl]-1,5-naphthyridin-3-amine] | < 0.0316 | < 20
CNCCn1ccc(-c2cnc3ccc(-c4c[nH]nc4-c4cccc(C(C)C)n4)nc3c2)n1 [Compound 276, 2-[3-[6-[3-(6-isopropyl-2-pyridyl)-1H-pyrazol-4-yl]-1,5-naphthyridin-3-yl]pyrazol-1-yl]-N-methyl-ethanamine] | < 0.0316 | 25.1 to 158
Cc1cccc(-c2[nH]cnc2-c2ccc3ncc(-c4cccc(C(=O)O[C@@H]5CCNC5)c4)cc3c2)n1 [Compound 736, [(3R)-pyrrolidin-3-yl] 3-[6-[5-(6-methyl-2-pyridyl)-1H-imidazol-4-yl]-3-quinolyl]benzoate] | 0.0398 to 0.316 | 25.1 to 158
Cc1cccc(-c2[nH]cnc2-c2ccc3ncc(-c4nccc(C(=O)O)n4)cc3c2)n1 [Compound 1109, 2-[6-[5-(6-methyl-2-pyridyl)-1H-imidazol-4-yl]-3-quinolyl]pyrimidine-4-carboxylic acid] | 0.398 to 3.16 | 1580 to 10000
CNCCn1ccc(-c2cnc3ccc(-c4nc[nH]c4-c4cccc(C)n4)nc3c2)n1 [Compound 152, N-methyl-2-[3-[6-[5-(6-methyl-2-pyridyl)-1H-imidazol-4-yl]-1,5-naphthyridin-3-yl]pyrazol-1-yl]ethanamine] | < 0.0316 | 25.1 to 158
Cc1cccc(-c2n[nH]cc2-c2ccc3ncc(NCCN4CCCC4)cc3n2)n1 [Compound 597, 6-[3-(6-methyl-2-pyridyl)-1H-pyrazol-4-yl]-N-(2-pyrrolidin-1-ylethyl)-1,5-naphthyridin-3-amine] | < 0.0316 | 25.1 to 158
Cc1cccc(-c2[nH]cnc2-c2ccc3ncc(-c4ccc(C(=O)OC[C@H]5CCCCN5)cn4)cc3c2)n1 [Compound 1244, [(2R)-2-piperidyl]methyl 6-[6-[5-(6-methyl-2-pyridyl)-1H-imidazol-4-yl]-3-quinolyl]pyridine-3-carboxylate] | 0.0398 to 0.316 | 25.1 to 158
Cc1cccc(-c2[nH]cnc2-c2ccc3ncc(-c4cc(C(=O)O)cs4)cc3c2)n1 [Compound 1082, 5-[6-[5-(6-methyl-2-pyridyl)-1H-imidazol-4-yl]-3-quinolyl]thiophene-3-carboxylic acid] | < 0.0316 | 200 to 1260
CCOC(=O)Cn1cc(-c2cnc3ccc(-c4c[nH]nc4-c4cccc(C)n4)nc3c2)nn1 [Compound 76, ethyl 2-[4-[6-[3-(6-methyl-2-pyridyl)-1H-pyrazol-4-yl]-1,5-naphthyridin-3-yl]triazol-1-yl]acetate] | 0.0398 to 0.316 | 25.1 to 158
Cc1cccc(-c2[nH]cnc2-c2ccc3ncc(-c4cncc(C(=O)OCC5CNC5)c4)cc3c2)n1 [Compound 665, azetidin-3-ylmethyl 5-[6-[5-(6-methyl-2-pyridyl)-1H-imidazol-4-yl]-3-quinolyl]pyridine-3-carboxylate] | 0.0398 to 0.316 | 200 to 1260

Further lines, with some results ahead:

Ki [1] [nM] | SMILES | IC50 [2] [nM]
0.0398 to 0.316 | Cc1cccc(-c2[nH]cnc2-c2ccc3ncc(-c4ncc(CN5CCNCC5)s4)cc3c2)n1 [Compound 1055, 2-[6-[5-(6-methyl-2-pyridyl)-1H-imidazol-4-yl]-3-quinolyl]-5-(piperazin-1-ylmethyl)thiazole] | < 20
0.398 to 3.16 | Cc1cccc(-c2n[nH]cc2-c2ccc3nccc(N4CCC(N(C)C)C4)c3c2)n1 (racemic) [Compound 867, rac-(3S)-N,N-dimethyl-1-[6-[3-(6-methyl-2-pyridyl)-1H-pyrazol-4-yl]-4-quinolyl]pyrrolidin-3-amine] | 200 to 1260
0.398 to 3.16 | Cc1cccc(-c2[nH]nnc2-c2ccc3ncc(N4CCCNCC4)cc3c2)n1 [Compound 339, 3-(1,4-diazepan-1-yl)-6-[5-(6-methyl-2-pyridyl)-1H-triazol-4-yl]quinoline] | 200 to 1260
0.398 to 3.16 | Cc1cccc(-c2[nH]cnc2-c2ccc3ncc(C(=O)OCCN)cc3c2)n1 [Compound 1040, 2-aminoethyl 6-[5-(6-methyl-2-pyridyl)-1H-imidazol-4-yl]quinoline-3-carboxylate] | 25.1 to 158
0.0398 to 0.316 | Cc1cccc(-c2[nH]cnc2-c2ccc3ncc(Nc4cnn(C5CNC5)c4)cc3c2)n1 [Compound 227, N-[1-(azetidin-3-yl)pyrazol-4-yl]-6-[5-(6-methyl-2-pyridyl)-1H-imidazol-4-yl]quinolin-3-amine] | 200 to 1260
0.0398 to 0.316 | Cc1cccc(-c2[nH]cnc2-c2ccc3ncc(NCCN4CCNCC4)cc3c2)n1 [Compound 122, 6-[5-(6-methyl-2-pyridyl)-1H-imidazol-4-yl]-N-(2-piperazin-1-ylethyl)quinolin-3-amine] | 25.1 to 158
0.0398 to 0.316 | Cc1cccc(-c2nnn(C)c2-c2ccc3ncc(N4CCC(N(C)C)C4)cc3c2)n1 (racemic) [Compound 25, rac-(3S)-N,N-dimethyl-1-[6-[3-methyl-5-(6-methyl-2-pyridyl)triazol-4-yl]-3-quinolyl]pyrrolidin-3-amine] | 25.1 to 158
0.398 to 3.16 | Cc1cccc(-c2nnn(C)c2-c2ccc3ncc(N4CCCNCC4)cc3c2)n1 [Compound 567, 3-(1,4-diazepan-1-yl)-6-[3-methyl-5-(6-methyl-2-pyridyl)triazol-4-yl]quinoline] | 25.1 to 158
3.98 to 31.6 | Cc1cccc(-c2[nH]ncc2-c2ccc3ncc(C(=O)O)cc3c2)n1 [Compound 783, 6-[5-(6-methyl-2-pyridyl)-1H-pyrazol-4-yl]quinoline-3-carboxylic Acid] | 1580 to 10000
0.0398 to 0.316 | Cc1cccc(-c2[nH]cnc2-c2ccc3ncc(C(=O)OC[C@@H]4CCC[C@H](N)C4)cc3c2)n1 (racemic) [Compound 767, [rac-(1R,3S)-3-aminocyclohexyl]methyl 6-[5-(6-methyl-2-pyridyl)-1H-imidazol-4-yl]quinoline-3-carboxylate] | 25.1 to 158

Reference: patent US11590116B2 (THERAVANCE BIOPHARMA R&D IP, LLC, priority 2019, dated 2023)
